# Laboratory results as given in patent publication US20260364072A1, “METHODS FOR PROMOTING EXPANSION OF HUMAN CD34+ CELLS IN VIVO AND FOR PROMOTING NEURAL REGENERATION” (THE REGENTS OF THE UNIVERSITY OF CALIFORNIA, priority 2023, published 2026).
# Legend:
# sAML PDX mouse models = experiment: Survival of humanized sAML PDX mice; assay type: in vivo, human sAML cells in mice
# Procedure: Here, we established humanized mouse models using CD34^+ stem cells isolated from the peripheral blood of adult secondary AML (sAML) patients or bone marrow of normal-aged donors (63-79 years old).
# The mouse models were screened by staining the PB of each mouse with a human CD45 mAb. Mice with a threshold of human CD45^+ cells >1% were included in the treatment cohort for Rebecchini. The dosing plan involved administering Rebecsinib at a dose of 10 mg/kg, intravenously, twice a week for 2 weeks, with a total of 5 doses. Single cells were isolated from the mouse organs, including PB, SP, and BM, and subjected to staining with human stem cell markers and lineage cell markers.
# These mice were monitored for survival throughout the study until they reached the endpoint. Survival data were analyzed using a Log-rank test.
# ADAR1p150 = ADAR1p150 protein by intracellular flow cytometry in sAML50261 engrafted mice; assay type: in vivo, human cells in mice; conditions: human HSC and HPC, spleens of sAML50261 engrafted mice, vs vehicle
# Procedure: FIG. 30D illustrates a mean fluorescence intensity (MFI) of ADAR1p150 protein levels in human HSCs (CD45^+CD34^+CD38^−Lin^−) and HPCs (CD45^+CD34^+CD38^+Lin^−) from the spleens of sAML50261 engrafted mice treated with Rebecsinib or vehicle;
# Flow cytometry for stem and progenitor cell surface antibody staining was performed as previously described.^14 For phospho-flow, a subset of samples was fixed and permeabilized, then blocked and stained with APC-conjugated ADAR1p150 antibody (cat ab269444, 1:25) and pSTAT3 APC (cat 17-9033-42, 1:10) (Table S2). Fractions were analyzed with the BD LSR FORTESSA™ (Sanford Consortium for Regenerative Medicine Stem Cell Core) and FLOWJO™ software (TreeStar, Ashland, OR).
# In humanized mouse models, sAML cells (CD34^+) from two unique […] patient samples that were splicing factor mutated or unmutated were utilized, including sAML50261 and sAML2008-5.^14 For in vivo efficacy and therapeutic index studies, sAML CD34^+ cells, or normal human cord blood-derived or aged bone marrow-derived HSPCs (CD34^+), were transplanted (50,000-200,000 cells per mouse) intrahepatically into neonatal Rag2^−/−γc^−/− mice, or intravenously into adult NSG-SGM3 mice (Jackson Laboratories, Bar Harbor, ME). A subset of experiments was performed with normal aged bone marrow cells that were transduced with the lentiviral ADAR1 nanoluc-GFP reporter vector prior to transplant. […]
# [1] = NHP single-dose toxicokinetic study; assay type: in vivo, cynomolgus monkeys
# Procedure: Pre-IND PD and toxicokinetic (TK) studies (FIG. 4D) were enabled by scalable Rebecsinib synthesis^34 and development of an optimized formulation for in vivo biodistribution (5% w/v EtOH, 5% w/v Kolliphor HS15 in 0.9% Sodium Chloride). In PK studies, Rebecsinib was detectable in rat, rabbit, and non-human primate (NHP) plasma following IV bolus administration. In rat TK studies, Rebecsinib was quantifiable up to 1-hour post-dose at 1 mg/kg and up to 4 hours post-dose at 3, 5, and 8 mg/kg (FIG. 4E). […] Rebecsinib T1/2 values were 0.342, 0.447, 0.313, and 0.530 hours at 1, 3, 5, and 8 mg/kg, respectively. […] Following 3, 10, and 20 mg/kg boluses, Rebecsinib was quantifiable in plasma 1 hour post-dose and could be detected up to 8 hours post-dosing with 40 mg/kg (FIG. 4F). […] Following 3, 10, 15, and 20 mg/kg of Rebecsinib, quantifiable plasma concentrations of Rebecsinib were observed through 8 hrs post-dose (FIG. 4G).
# (FIG. 29D) Schematic diagram outlining multispecies toxicokinetic (TK) and pharmacodynamic studies in mammalian species treated in vivo with a single dose of Rebecsinib. Toxicokinetic analyses were performed in rats (n=6 per sex, per group), rabbits (n=2 per sex, per group), and non-human primates (NHPs, n=1 per sex, per group) and pharmacodynamic splice isoform quantification studies were performed in peripheral blood mononuclear cells (PBMCs) from NHP.
# (FIG. 29G, FIG. 29H) For in vivo TK and complementary pharmacodynamic studies, NHPs were given a single injection of Rebecsinib at 3-20 mg/kg, or vehicle control, and blood samples were drawn at regular intervals to determine plasma concentrations (FIG. 29G) of the compound along with splice isoform biomarker assays to quantify MCL1 exon skipping in PBMCs isolated from treated animals (FIG. 29H, n=2 animals per group).
# Single-dose TK studies were performed in Sprague Dawley rats (Charles River Labs, South San Francisco, CA), New Zealand white rabbits (BASi/Inotiv, West Lafayette, IN), and cynomolgus monkeys (BASi/Inotiv). Rat and rabbit studies included toxicology analyses, quantification of plasma levels of Rebecsinib, and necropsies to evaluate organ integrity after treatment. For NHP studies, health and ophthalmological evaluations were performed before and after dosing with Rebecsinib, and blood samples were collected for quantification of plasma levels of Rebecsinib and biomarker studies in PBMCs from treated and control animals. All monkeys were returned to the animal colony after the end of the observation period. Toxicokinetic values including mean plasma concentrations and t1/2 values were calculated according to CRO-approved protocols (Charles River and BASi).
smiles,measurement,setting,value
CC[C@H](OC)[C@@H](C)[C@H]1O[C@@H]1[C@@H](O)[C@H](C)/C=C/C=C(\C)[C@H]1OC(=O)C[C@H](O)CC[C@@](C)(O)[C@@H](OC(C)=O)/C=C/[C@@H]1C [Rebecsinib],survival of sAML-engrafted mice,"sAML PDX mouse models; compared to vehicle, fedratinib, and the combination of rebecsinib and fedratinib",survived significantly longer
same,survival time versus single fedratinib,"sAML PDX mouse models; single rebecsinib vs single fedratinib, p=0.016, Log-rank test",significantly longer
same,survival time versus vehicle,"sAML PDX mouse models; single rebecsinib vs vehicle, p=0.0003, Log-rank test",significantly longer
same,ADAR1p150 protein isoform levels,ADAR1p150,significantly decreased ADAR1p150 protein isoform levels
same,tolerability,[1],favorable tolerability
same,diarrhea,"[1]; 20 mg/kg, resolved within 24 hours with no treatment and no sequelae",one female NHP in the 20 mg/kg treatment group developed diarrhea
same,quantifiable plasma concentrations through time post-dose,"[1]; IV bolus, 3, 10, 15, and 20 mg/kg",up to 8 hrs
same,"peak (Cmax) levels, male vs female","[1]; IV bolus, all dose levels",comparable between male and females
same,"total (AUClast) levels, male vs female","[1]; IV bolus, all dose levels",comparable between male and females
same,half-life,"[1]; cynomolgus monkey, plasma, IV bolus, read-out: half-life (t1/2)",37.2 to 66 min
